Test results: patent publication US5498628A, “Naphthamide derivatives” (Institut National de la Sante et de la Recherche Medicale, priority 1991, dated 1996)
Where a name gives a salt, the structure may show the parent alone.

Key:
[1] = target: HUMAN D3 DOPAMINERGIC RECEPTOR (Homo sapiens, UniProt P35462); experiment: biochemical; conditions: read-out: Ki VALUE (inhibition constant for binding of [^125 I]iodosulpiride)
Description: The inhibition constants for the binding of [^125 I]iodosulpiride to the D3 receptor were measured as described in the French Patent Application filed by INSERM on 6th Nov. 1990 under No. 90/13731.

[2] = test system: dopamine receptors; experiment: Antagonism of apomorphine-induced rearing in mice (dopamine receptor blockade in vivo); conditions: i.p.
Description: (§1) The capacity to bring about a blockade of the dopamine receptors in vivo was evaluated for some of the compounds according to the invention. The tests used were the antagonism of stereotyped sniffing and rearing induced by apomorphine in mice. These tests have been described by Protais et al. (Psychopharmacology, 1976, 50:1-6) and by Vasse et al. (Naunyn Schmiedeberg's Arch. Pharmacol., 1985, 329:108-116).

[3] = test system: dopamine receptors; experiment: Antagonism of apomorphine-induced stereotyped sniffing in mice (dopamine receptor blockade in vivo); conditions: Mus musculus, ip, read-out: ID50 for the antagonism of sniffing
Description: as §1

Chain of UniProt P35462 (P35462 whole entry): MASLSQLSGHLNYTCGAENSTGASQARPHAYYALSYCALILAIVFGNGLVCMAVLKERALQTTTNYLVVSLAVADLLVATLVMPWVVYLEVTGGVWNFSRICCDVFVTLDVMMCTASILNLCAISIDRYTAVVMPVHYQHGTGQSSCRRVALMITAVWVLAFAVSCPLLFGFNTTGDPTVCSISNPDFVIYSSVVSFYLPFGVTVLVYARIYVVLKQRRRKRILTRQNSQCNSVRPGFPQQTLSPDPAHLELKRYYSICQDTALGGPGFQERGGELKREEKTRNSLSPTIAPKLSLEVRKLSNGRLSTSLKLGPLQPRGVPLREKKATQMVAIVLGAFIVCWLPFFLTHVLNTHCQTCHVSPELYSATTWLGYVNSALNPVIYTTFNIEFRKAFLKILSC

Row | Ki [1] | Structure (SMILES) | also measured
1 | 1.7 nM | COc1c(C(=O)NCC2CCCN2Cc2ccccc2)cc([N+](=O)[O-])c2ccccc12 (stereo not drawn) [Example 12, 4-Nitro-N-[(N-benzyl-2-pyrrolidinyl)methyl]-1-methoxy-2-naphthamide] | 
2 | 0.3 nM | CCN1CCCC1CNC(=O)c1cc([N+](=O)[O-])c2ccccc2c1OC (stereo not drawn) [Example 6, 4-Nitro-N-[(N-ethyl-2-pyrrolidinyl)methyl]-1-methoxy-2-naphthamide] | 
3 | 0.26 nM | CCN1CCCC1CNC(=O)c1cc(Cl)c2ccccc2c1OC (stereo not drawn) [Example 8, 4-Chloro-N-[(N-ethyl-2-pyrrolidinyl)methyl]-1-methoxy-2-naphthamide hydrochloride] | ED50 ([2]; Mus musculus, ip, apomorphine-induced rearing, read-out: ID50 for the antagonism of rearing): 0.16 mg/kg; crossing of the blood-brain barrier ([2]; inferred from ID50 values for rearing and sniffing): readily crosses the blood-brain barrier; ED50 [3]: 0.42 mg/kg
4 | 0.35 nM | C=CCN1CCCC1CNC(=O)c1cc([N+](=O)[O-])c2ccccc2c1OC (stereo not drawn) [Example 17] | 
5 | 35 nM | CCN1CCCC1CNC(=O)c1ccc2ccccc2c1OC (stereo not drawn) [Example 4, N-[(N-Ethyl-2-pyrrolidinyl)methyl]-1-methoxy-2-naphthamide] | 
6 | 0.51 nM | C=CCN1CCCC1CNC(=O)c1cc(C#N)c2ccccc2c1OC (stereo not drawn) [Example 2, N-[(N-allyl-2-pyrrolidinyl)methyl]-1-methoxy-4-cyano-2-naphthamide] | 
7 | 4.7 nM | COc1c(C(=O)NCC2CCCN2Cc2ccccc2)cc(Cl)c2ccccc12 (stereo not drawn) [Example 13, 4-Chloro-N-[(N-benzyl-2-pyrrolidinyl)methyl]-1-methoxy-2-naphthamide] | 
8 | 91 nM | COc1c(C(=O)NCC2CCCN2Cc2ccccc2)ccc2ccccc12 (stereo not drawn) [Example 11, N-[(N-Benzyl-2-pyrrolidinyl)methyl]-1-methoxy-2-naphthamide hydrochloride] | 
9 | 0.24 nM | CCCCN1CCCC1CNC(=O)c1cc(Br)c2ccccc2c1OC (stereo not drawn) [Example 1, N-[(N-1-butyl-2-pyrrolidinyl)methyl]-1-methoxy-4-bromo-2-naphthamide hydrochloride] | 
